# Target: T1, Recombinant human mPGES-1 (Homo sapiens, UniProt O14684)
# T1 sequence (O14684 1-152): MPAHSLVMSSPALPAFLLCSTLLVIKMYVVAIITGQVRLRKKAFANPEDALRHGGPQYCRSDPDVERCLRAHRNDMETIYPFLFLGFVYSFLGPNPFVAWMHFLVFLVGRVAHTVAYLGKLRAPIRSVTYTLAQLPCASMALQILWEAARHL
# Assay: In-vitro mPGES-1 enzyme inhibition assay (PGE2 formation from PGH2, HTRF detection)
# Format: biochemical
# Settings: for inhibition at 1 µM: 1 μM test compound, read-out: Percentage inhibition at 1 μM; for inhibition at 1 µM / inhibition at 10 µM: recombinant human mPGES-1 microsomal fraction; for inhibition at 10 µM: 10 μM test compound, read-out: Percentage inhibition at 10 μM; for IC50: class symbols, selected examples
# Method in brief: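 IC50 values were derived by nonlinear regression of percent inhibition relative to enzyme reactions run without inhibitor. PGE2 formed from PGH2 with GSH was quantified by antibody-based HTRF after stannous chloride quench. Enzyme source was human mPGES-1 microsomes at 40-60 μg/mL protein; DMSO 0.5% (v/v).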
Structure (SMILES),inhibition at 1 µM [%],inhibition at 10 µM [%],IC50 [nM]
"Cc1ccnc(Cl)c1Nc1nc2cc(C(=O)Nc3cccc(C(F)(F)F)c3)c3c(c2[nH]1)CC(C)(C)O3 [Example-137, 2-((2-Chloro-4-methylpyridin-3-yl)amino)-7,7-dimethyl-N-(3-(trifluoromethyl)phenyl)-7,8-dihydro-1H-benzofuro[4,5-d]imidazole-5-carboxamide]",95.3,100,< 50
"Cn1c(Nc2c(F)cccc2Cl)nc2cc(C(=O)Nc3cccc(C(F)(F)F)c3)c3c(c21)CC(C)(C)O3 [Example-139, 2-((2-Chloro-6-fluorophenyl)amino)-1,7,7-trimethyl-N-(3-(trifluoromethyl)phenyl)-7,8-dihydro-1H-benzofuro[4,5-d]imidazole-5-carboxamide]",95.9,99.2,< 50
"CC1(C)Cc2c(c(C(=O)Nc3ccc(C4CC4)cc3)cc3nc(Nc4c(F)cccc4Cl)[nH]c23)O1 [Example-140, 2-((2-Chloro-6-fluorophenyl)amino)-N-(4-cyclopropylphenyl)-7,7-dimethyl-7,8-dihydro-1H-benzofuro[4,5-d]imidazole-5-carboxamide]",97.1,98.9,< 50
"Cc1ccc(NC(=O)c2cc3nc(Nc4c(Cl)cccc4Cl)[nH]c3c3c2OC(C)(C)C3)c(F)c1 [Example-142, 2-((2,6-Dichlorophenyl)amino)-N-(2-fluoro-4-methylphenyl)-7,7-dimethyl-7,8-dihydro-1H-benzofuro[4,5-d]imidazole-5-carboxamide]",97.9,97.5,< 50
"CC1(C)Cc2c(c(C(=O)Nc3cccc(C(F)(F)F)c3)cc3nc(NC(=O)c4c(F)cccc4Cl)[nH]c23)O1 [Example-143, 2-(2-Chloro-6-fluorobenzamido)-7,7-dimethyl-N-(3-(trifluoromethyl)phenyl)-7,8-dihydro-1H-benzofuro[4,5-d]imidazole-5-carboxamide]",19.6,39.2,
"CC1(C)Cc2c(c(C(=O)Nc3cccc(C(F)(F)F)c3)cc3nc(NCc4ccccc4Cl)[nH]c23)O1 [Example-144, 2-((2-Chlorobenzyl)amino)-7,7-dimethyl-N-(3-(trifluoromethyl)phenyl)-7,8-dihydro-1H-benzofuro[4,5-d]imidazole-5-carboxamide]",37.3,46,
"Cc1ccc(NC(=O)c2cc3nc(Nc4c(F)cccc4Cl)n(C)c3c3c2OC(C)(C)C3)c(F)c1 [Example-154, 2-((2-Chloro-6-fluorophenyl)amino)-N-(2-fluoro-4-methylphenyl)-1,7,7-trimethyl-7,8-dihydro-1H-benzofuro[4,5-d]imidazole-5-carboxamide]",99.8,100,< 50
"Cn1c(Nc2c(F)cccc2Cl)nc2cc(C(=O)Nc3ccc(C(F)(F)F)c[n+]3[O-])c3c(c21)CC(C)(C)O3 [Example-155, 2-(2-((2-Chloro-6-fluorophenyl)amino)-1,7,7-trimethyl-7,8-dihydro-1H-benzofuro[4,5-d]imidazole-5-carboxamido)-5-(trifluoromethyl)pyridine 1-oxide]",87.9,99.8,> 100
"CC1(C)Cc2c(c(C(=O)Nc3ccc(C(F)(F)F)c[n+]3[O-])cc3nc(Nc4c(F)cccc4Cl)[nH]c23)O1 [Example-158, 2-(2-((2-Chloro-6-fluorophenyl)amino)-7,7-dimethyl-7,8-dihydro-1H-benzofuro[4,5-d]imidazole-5-carboxamido)-5-(trifluoromethyl)pyridine 1-oxide]",77,97.4,
"Cc1cccc(Cl)c1Nc1nc2cc(C(=O)Nc3ccc(C(F)(F)F)nc3)c3c(c2[nH]1)CC(C)(C)O3 [Example-160, 2-((2-Chloro-6-methylphenyl)amino)-7,7-dimethyl-N-(6-(trifluoromethyl)pyridin-3-yl)-7,8-dihydro-1H-benzofuro[4,5-d]imidazole-5-carboxamide]",99.2,100,50 to 100
"CC1(C)Cc2c(c(-c3nc(-c4ccc(F)c(Cl)c4)no3)cc3nc(Nc4c(Cl)cccc4Cl)[nH]c23)O1 [Example-161, 5-(3-(3-Chloro-4-fluorophenyl)-1,2,4-oxadiazol-5-yl)-N-(2,6-dichlorophenyl)-7,7-dimethyl-7,8-dihydro-1H-benzofuro[4,5-d]imidazol-2-amine]",79.2,88,> 100
"COc1cc(OC)cc(-c2noc(-c3cc4nc(Nc5c(Cl)cccc5Cl)[nH]c4c4c3OC(C)(C)C4)n2)c1 [Example-162, N-(2,6-Dichlorophenyl)-5-(3-(3,5-dimethoxyphenyl)-1,2,4-oxadiazol-5-yl)-7,7-dimethyl-7,8-dihydro-1H-benzofuro[4,5-d]imidazol-2-amine]",62.3,80.8,
"Cc1cccc(Cl)c1Nc1nc2cc(C(=O)Nc3cccc(C(F)(F)F)c3F)c3c(c2[nH]1)CC(C)(C)O3 [Example-164, 2-((2-Chloro-6-methylphenyl)amino)-N-(2-fluoro-3-(trifluoromethyl)phenyl)-7,7-dimethyl-7,8-dihydro-1H-benzofuro[4,5-d]imidazole-5-carboxamide]",93.5,94.5,< 50

# Continued, values first:
inhibition at 1 µM [%],inhibition at 10 µM [%],IC50 [nM],Structure (SMILES)
89.4,96.9,< 50,"Cc1cccc(Cl)c1Nc1nc2cc(C(=O)Nc3cc(C4CC4)ccc3F)c3c(c2[nH]1)CC(C)(C)O3 [Example-136, 2-((2-Chloro-6-methylphenyl)amino)-N-(5-cyclopropyl-2-fluorophenyl)-7,7-dimethyl-7,8-dihydro-1H-benzofuro[4,5-d]imidazole-5-carboxamide]"
96.4,98.6,< 50,"CC1(C)Cc2c(c(C(=O)Nc3cc(F)c(F)cc3F)cc3nc(Nc4c(Cl)cccc4Cl)[nH]c23)O1 [Example-141, 2-((2,6-Dichlorophenyl)amino)-7,7-dimethyl-N-(2,4,5-trifluorophenyl)-7,8-dihydro-1H-benzofuro[4,5-d]imidazole-5-carboxamide]"
59.5,60.4,,"CC1(C)Cc2c(c(C(=O)Nc3cc(C(F)(F)F)ccc3F)cc3nc(NCc4ccccc4Cl)[nH]c23)O1 [Example-145, 2-((2-Chlorobenzyl)amino)-N-(2-fluoro-5-(trifluoromethyl)phenyl)-7,7-dimethyl-7,8-dihydro-1H-benzofuro[4,5-d]imidazole-5-carboxamide]"
100,99.9,< 50,"Cn1c(Nc2c(F)cccc2Cl)nc2cc(C(=O)Nc3ccc(C(F)(F)F)nc3)c3c(c21)CC(C)(C)O3 [Example-153, 2-((2-Chloro-6-fluorophenyl)amino)-1,7,7-trimethyl-N-(6-(trifluoromethyl)pyridin-3-yl)-7,8-dihydro-1H-benzofuro[4,5-d]imidazole-5-carboxamide]"
33.1,92.2,,"CC(C)c1noc(-c2cc3nc(Nc4c(F)cccc4Cl)[nH]c3c3c2OC(C)(C)C3)n1 [Example-156, N-(2-Chloro-6-fluorophenyl)-5-(3-isopropyl-1,2,4-oxadiazol-5-yl)-7,7-dimethyl-7,8-dihydro-1H-benzofuro[4,5-d]imidazol-2-amine]"
98.9,99.7,< 50,"Cn1c(Nc2c(F)cccc2Cl)nc2cc(C(=O)Nc3ccc(C(F)(F)F)cn3)c3c(c21)CC(C)(C)O3 [Example-157, 2-((2-Chloro-6-fluorophenyl)amino)-1,7,7-trimethyl-N-(5-(trifluoromethyl)pyridin-2-yl)-7,8-dihydro-1H-benzofuro[4,5-d]imidazole-5-carboxamide]"
98.9,100,< 50,"CC1(C)Cc2c(c(C(=O)Nc3cc(C4CC4)ccc3F)cc3nc(Nc4c(Cl)cccc4Cl)[nH]c23)O1 [Example-159, N-(5-Cyclopropyl-2-fluorophenyl)-2-((2,6-dichlorophenyl)amino)-7,7-dimethyl-7,8-dihydro-1H-benzofuro[4,5-d]imidazole-5-carboxamide]"
62.8,96.9,,"Cc1cccc(Cl)c1Nc1nc2cc(C(=O)Nc3ccc(C(F)(F)F)c[n+]3[O-])c3c(c2[nH]1)CC(C)(C)O3 [Example-163, 2-(2-((2-Chloro-6-methylphenyl)amino)-7,7-dimethyl-7,8-dihydro-1H-benzofuro[4,5-d]imidazole-5-carboxamido)-5-(trifluoromethyl)pyridine 1-oxide]"
99.4,98.1,< 50,"CC1(C)Cc2c(c(C(=O)Nc3cccc(C4CC4)c3)cc3nc(Nc4c(F)cccc4Cl)[nH]c23)O1 [Example-165, 2-((2-Chloro-6-fluorophenyl)amino)-N-(3-cyclopropylphenyl)-7,7-dimethyl-7,8-dihydro-1H-benzofuro[4,5-d]imidazole-5-carboxamide]"
97.7,99.6,,"CC1(C)Cc2c(c(C(=O)Nc3ccc(C(F)(F)F)nc3)cc3nc(Nc4c(Cl)cccc4Cl)[nH]c23)O1 [Example-166, 2-((2,6-Dichlorophenyl)amino)-7,7-dimethyl-N-(6-(trifluoromethyl)pyridin-3-yl)-7,8-dihydro-1H-benzofuro[4,5-d]imidazole-5-carboxamide]"

# — patent US8519149B2, “Tricyclic compounds as mPGES-1 inhibitors” (Glenmark Pharmaceuticals S.A., priority 2010, dated 2013)
